What was measured:
[1] = Half life of the compound in fluka 82567 buffer at pH 7 by HPLC analysis; format: physicochemical
[2] = Half life of the compound in fluka 82564 buffer at pH 2 by HPLC analysis; format: physicochemical
[3] = Cytotoxicity against human HEL cells; format: cell-based
[4] = Cytotoxicity against cat CRFK cells; format: cell-based, Felis catus
[5] = tested on: CCRF-CEM; experiment: Cytotoxicity against human CEM cells; format: cell-based
[6] = tested on: L1210; experiment: Cytotoxicity against mouse L1210 cells; format: cell-based
[7] = tested on: Human immunodeficiency virus 2; experiment: Antiviral activity against HIV-2 ROD infected in human CEM cells assessed as HIV-induced host giant cell formation after 4 days by microscopic analysis; format: functional, organism-based; details: Human immunodeficiency virus 2, ISOLATE ROD, CCRF-CEM, 96 h
[8] = tested on: Human immunodeficiency virus 1; experiment: Antiviral activity against HIV-1 3B infected in human CEM cells assessed as HIV-induced host giant cell formation after 4 days by microscopic analysis; format: functional, organism-based; details: Human immunodeficiency virus 1, 3B, CCRF-CEM, 96 h
[9] = tested on: Felid alphaherpesvirus 1; experiment: Antiviral activity against Feline herpesvirus in cat CrFK cells assessed as plaque formation; format: functional, organism-based; details: Felid alphaherpesvirus 1, CRFK
[10] = tested on: Feline coronavirus; experiment: Antiviral activity against Feline coronavirus in cat CrFK cells assessed as plaque formation; format: functional, organism-based; details: Alphacoronavirus 1, CRFK
[11] = tested on: Cytomegalovirus; experiment: Antiviral activity against Cytomegalovirus Davis infected in HEL cells assessed as inhibition of virus-induced cytopathicity; format: functional, organism-based; details: Human betaherpesvirus 5, Davis
[12] = tested on: Human betaherpesvirus 5; experiment: Antiviral activity against Cytomegalovirus AD-169 infected in HEL cells assessed as inhibition of virus-induced cytopathicity; format: functional, organism-based; details: Human betaherpesvirus 5, AD169, HEL
[13] = tested on: Human alphaherpesvirus 3; experiment: Antiviral activity against Varicellla-zoster virus 07-1 infected in HEL cells assessed as inhibition of virus-induced cytopathicity; format: functional, organism-based; details: Human alphaherpesvirus 3, 07-1, HEL
[14] = tested on: Human alphaherpesvirus 3; experiment: Antiviral activity against Varicellla-zoster virus Oka infected in HEL cells assessed as inhibition of virus-induced cytopathicity; format: functional, cell-based; details: Human alphaherpesvirus 3, strain Oka vaccine
[15] = tested on: Human alphaherpesvirus 1; experiment: Antiviral activity against thymidine kinase-deficient ACV-resistant HSV-1 KOS infected in HEL cells assessed as inhibition of virus-induced cytopathicity; format: functional, organism-based; details: Human alphaherpesvirus 1, KOS
[16] = tested on: Vesicular stomatitis virus; experiment: Antiviral activity against Vesicular somatitis virus infected in HEL cells assessed as inhibition of virus-induced cytopathicity; format: functional, organism-based
[17] = tested on: Vaccinia virus; experiment: Antiviral activity against Vaccinia virus Lederle infected in HEL cells assessed as inhibition of virus-induced cytopathicity; format: functional, organism-based; details: Orthopoxvirus vaccinia
[18] = tested on: Human alphaherpesvirus 2; experiment: Antiviral activity against HSV-2 G infected in HEL cells assessed as inhibition of virus-induced cytopathicity; format: functional, organism-based; details: Human alphaherpesvirus 2, strain G
[19] = tested on: Human alphaherpesvirus 1; experiment: Antiviral activity against HSV-1 KOS infected in HEL cells assessed as inhibition of virus-induced cytopathicity; format: functional, organism-based; details: Human alphaherpesvirus 1, KOS
[20] = Stability of the compound at -20 degC assessed as compound degradation after 4 months by HPLC analysis; format: physicochemical; details: 2922 h
[21] = Stability of the compound in fluka 82571 buffer at pH 5 assessed as compound degradation after 2 days by HPLC analysis; format: physicochemical; details: pH 5, 48 h
[22] = Stability of the compound in fluka 82567 buffer at pH 7 assessed as compound degradation after 2 days by HPLC analysis; format: physicochemical; details: pH 7, 48 h

Compound	MCC [3] [µM]	CC50 [4] [µM]	IC50 [5] [µM]	IC50 [6] [µM]	EC50 [7] [µM]	EC50 [8] [µM]	EC50 [9] [µM]	EC50 [10] [µM]	EC50 [11] [µM]	EC50 [12] [µM]	EC50 [13] [µM]	EC50 [14] [µM]	EC50 [15] [µM]	EC50 [16] [µM]	EC50 [17] [µM]	EC50 [18] [µM]	EC50 [19] [µM]	other results
C[C@H](NP(=O)(Oc1ccccc1)O[C@H]1O[C@H](CO)[C@@H](O)[C@@H]1F)C(=O)OC1CCCCC1 (stereo partly drawn)	–	–	–	–	–	–	–	–	–	–	–	–	–	–	–	–	–	t1/2 [1]: 2 h; t1/2 [2]: 1.07 h
C[C@H](NP(=O)(Oc1cccc2ccccc12)O[C@@H]1O[C@H](CO)[C@@H](O)C1(F)F)C(=O)OC1CCCCC1 (mixture of isomers)	≥ 100	> 100	> 30	> 30	> 50	> 50	> 20	> 20	> 20	> 20	> 20	> 20	> 20	> 20	> 20	> 20	> 20	–
C[C@H](NP(=O)(Oc1ccccc1)O[C@H]1O[C@H](CO)[C@@H](O)C1(F)F)C(=O)OCC(C)(C)C (mixture of isomers)	≥ 100	> 100	> 30	> 30	> 250	> 250	> 20	> 20	> 20	> 20	> 20	> 20	> 20	> 20	> 20	> 20	> 20	–
C[C@H](NP(=O)(Oc1ccccc1)O[C@H]1O[C@H](CO)[C@@H](O)C1(F)F)C(=O)OC1CCCCC1 (mixture of isomers)	≥ 100	> 100	> 30	> 30	> 250	> 250	> 20	> 20	> 20	> 20	> 20	> 20	> 20	> 20	> 20	> 20	> 20	Stability [20]: Stable; Stability [21]: Stable; Stability [22]: Stable
C[C@H](NP(=O)(Oc1ccccc1)O[C@@H]1O[C@H](CO)[C@@H](O)C1(F)F)C(=O)OCC(C)(C)C (mixture of isomers)	≥ 100	> 100	> 30	> 30	> 250	> 250	> 20	> 20	> 20	> 20	> 20	> 20	> 20	> 20	> 20	> 20	> 20	–
COC(=O)[C@H](C)NP(=O)(Oc1ccccc1)O[C@@H]1O[C@H](CO)[C@@H](O)C1(F)F (mixture of isomers)	≥ 100	> 100	> 30	> 30	> 250	> 250	> 20	> 20	> 20	> 20	> 20	> 20	> 20	> 20	> 20	> 20	> 20	–
COC(=O)[C@@H](NP(=O)(Oc1ccccc1)O[C@@H]1O[C@H](CO)[C@@H](O)C1(F)F)C(C)C (mixture of isomers)	≥ 100	> 100	> 30	> 30	> 250	> 250	> 20	> 20	> 20	> 20	> 20	> 20	> 20	> 20	> 20	> 20	> 20	–
COC(=O)[C@@H](NP(=O)(Oc1cccc2ccccc12)O[C@@H]1O[C@H](CO)[C@@H](O)C1(F)F)C(C)C (mixture of isomers)	≥ 100	> 100	> 30	> 30	> 50	> 50	> 20	> 20	> 20	> 20	> 20	> 20	> 20	> 20	> 20	> 20	> 20	–
C[C@H](NP(=O)(Oc1cccc2ccccc12)O[C@@H]1O[C@H](CO)[C@@H](O)C1(F)F)C(=O)OCC(C)(C)C (mixture of isomers)	≥ 100	> 100	> 30	> 30	> 50	> 50	> 20	> 20	> 20	> 20	> 20	> 20	> 20	> 20	> 20	> 20	> 20	–
COC(=O)[C@H](C)NP(=O)(Oc1cccc2ccccc12)O[C@@H]1O[C@H](CO)[C@@H](O)C1(F)F (mixture of isomers)	≥ 100	> 100	> 30	> 30	> 50	> 50	> 20	> 20	> 20	> 20	> 20	> 20	> 20	> 20	> 20	> 20	> 20	–

Reference: ChEMBL document CHEMBL2385007, “Synthesis and biological evaluation of prodrugs of 2-fluoro-2-deoxyribose-1-phosphate and 2,2-difluoro-2-deoxyribose-1-phosphate” (Bioorg Med Chem Lett, 2013)
